Laboratory results from ChEMBL document CHEMBL1201862, “PubChem BioAssay data set” (2004).
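Following 48 hours of exposure in 96-well plates, responses at five concentrations were used to interpolate endpoints linearly. GI50 is the concentration that inhibits growth by half.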 The source made the active and inactive calls. Cut-off read from the data, not from the text of the source: active = GI50 up to about 1.1 µM and inactive = higher.

Tests used:
Assay in all cases: DTP human tumour cell line panel, 48 h
[1] = test system: K562
[2] = test system: DU-145
[3] = test system: MCF7
[4] = test system: Hs-578T
[5] = test system: OVCAR-3
[6] = test system: M14
[7] = test system: NCI-H23
[8] = test system: HCC 2998
[9] = test system: PC-3
[10] = test system: SN12C
[11] = test system: MDA-MB-231
[12] = test system: SK-MEL-5
[13] = test system: TK-10
[14] = test system: SF-268
[15] = test system: SF-539
[16] = test system: UACC-257
[17] = test system: HL-60
[18] = test system: SK-MEL-28
[19] = test system: RXF 393
[20] = test system: SR
[21] = test system: OVCAR-8
[22] = test system: HCT-116
[23] = test system: T47D
[24] = test system: SK-OV-3
[25] = test system: OVCAR-4
[26] = test system: CAKI-1
[27] = test system: MDA-MB-435
[28] = test system: HCT-15
[29] = test system: EKVX
[30] = test system: SNB-75
[31] = test system: NCI-H522
[32] = test system: Malme-3M
[33] = test system: OVCAR-5
[34] = test system: HT-29
[35] = test system: U-251
[36] = test system: 786-0
[37] = test system: SW-620
[38] = test system: ACHN
[39] = test system: BT-549
[40] = test system: LOX IMVI
[41] = test system: MOLT-4
[42] = test system: NCI/ADR-RES
[43] = test system: NCI-H460
[44] = test system: COLO 205
[45] = test system: KM12
[46] = test system: IGROV-1
[47] = test system: UO-31
[48] = test system: CCRF-CEM
[49] = test system: SF-295
[50] = test system: A549
[51] = test system: SK-MEL-2
[52] = test system: RPMI-8226
[53] = test system: UACC-62
[54] = test system: NCI-H226
[55] = test system: A498
[56] = test system: MDA-N
[57] = test system: HOP-92
[58] = test system: SNB-19
[59] = test system: HOP-62

Which results are given for `[O-][S+]1SC(=S)C2C=CC=NC21` (configuration not stated)?
GI50 [1]: 20.9 µM (inactive); GI50 [2]: 16.6 µM (inactive); GI50 [3]: 17.5 µM (inactive); GI50 [4]: 20.7 µM (inactive); GI50 [5]: 20.6 µM (inactive); GI50 [6]: 15.3 µM (inactive); GI50 [7]: 18.6 µM (inactive); GI50 [8]: 15.5 µM (inactive); GI50 [9]: 16.8 µM (inactive); GI50 [10]: 14.8 µM (inactive); GI50 [11]: 18.7 µM (inactive); GI50 [12]: 18.8 µM (inactive); GI50 [13]: 18.1 µM (inactive); GI50 [14]: 19.5 µM (inactive); GI50 [15]: 16 µM (inactive); GI50 [16]: 15.4 µM (inactive); GI50 [17]: > 100 µM (inactive); GI50 [18]: > 100 µM (inactive); GI50 [19]: 18.3 µM (inactive); GI50 [20]: 11.5 µM (inactive); GI50 [21]: 25 µM (inactive); GI50 [22]: 13.7 µM (inactive); GI50 [23]: 18.9 µM (inactive); GI50 [24]: 32.6 µM (inactive); GI50 [25]: > 100 µM (inactive); GI50 [26]: > 100 µM (inactive); GI50 [27]: > 100 µM (inactive); GI50 [28]: 17.3 µM; GI50 [29]: 13.2 µM (inactive); GI50 [30]: 18.7 µM (inactive); GI50 [31]: 14.3 µM (inactive); GI50 [32]: 17.3 µM (inactive); GI50 [33]: 15.3 µM (inactive); GI50 [34]: 16.1 µM (inactive); GI50 [35]: 18 µM (inactive); GI50 [36]: 14.5 µM (inactive); GI50 [37]: > 100 µM (inactive); GI50 [38]: 18.1 µM (inactive); GI50 [39]: 19 µM (inactive); GI50 [40]: 14.9 µM (inactive); GI50 [41]: 16.4 µM (inactive); GI50 [42]: 20.9 µM (inactive); GI50 [43]: 17.4 µM (inactive); GI50 [44]: 21.3 µM (inactive); GI50 [45]: 87.7 µM (inactive); GI50 [46]: 20.1 µM (inactive); GI50 [47]: 14.7 µM (inactive); GI50 [48]: > 100 µM (inactive); GI50 [49]: 22.4 µM (inactive); GI50 [50]: 19.2 µM (inactive); GI50 [51]: 19.4 µM (inactive); GI50 [52]: 32.1 µM (inactive); GI50 [53]: 21.3 µM (inactive); GI50 [54]: 22.2 µM (inactive); GI50 [55]: 27.6 µM (inactive); GI50 [56]: 14.7 µM (inactive); GI50 [57]: 15.8 µM (inactive); GI50 [58]: 26.1 µM (inactive)

What does the source list for `CC12CCC(O)CC1CCC1C2CCC2(C)C(C(=O)CC(O)C(F)(F)F)CCC12` (configuration not stated)?
GI50 [1]: 3.8 µM (inactive); GI50 [2]: > 87.5 µM (inactive); GI50 [3]: 31.2 µM (inactive); GI50 [4]: 23.9 µM (inactive); GI50 [5]: 28.6 µM (inactive); GI50 [6]: 20.8 µM (inactive); GI50 [7]: 40.9 µM (inactive); GI50 [8]: 21.6 µM (inactive); GI50 [9]: 30.6 µM (inactive); GI50 [10]: > 100 µM (inactive); GI50 [11]: 26.7 µM (inactive); GI50 [12]: 28.4 µM (inactive); GI50 [13]: 53.7 µM (inactive); GI50 [14]: 33.7 µM (inactive); GI50 [15]: 35.2 µM (inactive); GI50 [16]: 21.6 µM (inactive); GI50 [17]: 9.02 µM (inactive); GI50 [18]: 73.5 µM (inactive); GI50 [19]: 7.87 µM (inactive); GI50 [20]: 0.289 µM (active); GI50 [21]: 55.7 µM (inactive); GI50 [22]: 28.4 µM (inactive); GI50 [23]: 20.2 µM (inactive); GI50 [24]: 27 µM (inactive); GI50 [25]: > 100 µM (inactive); GI50 [26]: 21 µM (inactive); GI50 [27]: > 75 µM (inactive); GI50 [28]: 9.06 µM; GI50 [29]: 40.4 µM (inactive); GI50 [59]: 27.7 µM (inactive); GI50 [30]: 19.3 µM (inactive); GI50 [31]: 27.1 µM (inactive); GI50 [32]: 51.3 µM (inactive); GI50 [33]: 26.4 µM (inactive); GI50 [34]: 3.97 µM (inactive); GI50 [35]: 26.2 µM (inactive); GI50 [36]: 7.46 µM (inactive); GI50 [37]: 40.5 µM (inactive); GI50 [38]: 47.6 µM (inactive); GI50 [39]: > 78.3 µM (inactive); GI50 [40]: 7 µM (inactive); GI50 [41]: 9.35 µM (inactive); GI50 [42]: 24.9 µM (inactive); GI50 [43]: 11.7 µM (inactive); GI50 [44]: 12.2 µM (inactive); GI50 [45]: 17.1 µM (inactive); GI50 [46]: > 67.8 µM (inactive); GI50 [47]: 3.99 µM (inactive); GI50 [48]: 25.6 µM (inactive); GI50 [49]: 8.73 µM (inactive); GI50 [50]: 28.9 µM (inactive); GI50 [51]: 32.1 µM (inactive); GI50 [52]: 4.04 µM (inactive); GI50 [53]: 52.2 µM (inactive); GI50 [54]: 40 µM (inactive); GI50 [55]: 20.2 µM (inactive); GI50 [56]: 61.1 µM (inactive); GI50 [57]: 31.8 µM (inactive); GI50 [58]: 24.9 µM (inactive)
